Data from patent US8765819B2, “Composition comprising benzoic acid in combination with organic acid preservatives as active ingredients and the use thereof” (priority 2009, dated 2014).

Key:
Candidal vaginitis = assay: Therapeutic effect of gel compositions on Candidal vaginitis (clinical cases); type: in vivo, patients; settings: cases/cases of group
Text: 1. Experimental Object: observing the therapeutic effect of the compositions comprising the combination of sodium benzoate with sodium propionate or sorbic acid. Unless otherwise illustrated, the solutions in the experiments are all aqueous solutions.
• Group I: 0.125% (w/v) sodium propionate; • Group II: i.e., the composition of Example 9 comprising 0.1% (w/v) sodium benzoate+0.125% (w/v) sodium propionate; • Group III: 0.0125% (w/v) sorbic acid; • Group IV: i.e., the composition of Example 7 comprising 0.1% (w/v) sodium benzoate+0.0125% (w/v) sorbic acid; • Group V: 0.1% (w/v) sodium benzoate; • Group VI: i.e., the composition of Example 5 comprising 0.1% sodium benzoate+0.0125% sodium dehydroacetate. 3. Experimental cases: cases of Candidal vaginitis, 20 cases per group, enrolling according to following criteria: recurrent symptoms such as vulvovaginal pruritus and vulvovaginal burning pain, and increased leucorrhea, optionally with white bean curd slag-like clots, pH value of vaginal secretion <4.5, vaginal bacteria were dominated by large Gram-positive rods, and Candida spores and/or hypha were found. 4. […] 5. […] 6. Observed results: observing the changes in vulvovaginal pruritus, vulvovaginal burning pain and leucorrhea nature, the pH value of vaginal secretion, observing the Nugent scores of the vaginal flora, whether Candida grew or not. 7. […] 8.

[1] = system: Candida strains (clinical isolates from patients suffering from Candidal vaginitis); assay: Inhibition of Candida growth in broth pH 4.5 (turbidity after 72 hours); type: cell-based
Text: 1. […] Unless otherwise illustrated, the solutions in the experiments are all aqueous solutions. 2. Experimental Method: (1) Experimental Materials:
a) Experimental strains: 11 Candida strains, all of which were screened from the clinical isolates from patients suffering from Candidal vaginitis, and were capable of growing in broth comprising 0.025% (w/v) sodium benzoate.
b) Broth: 1% yeast extract powder, 9% sucrose, 0.025% Manganese sulfate (MnSO4.4H2O), 0.058% Magnesium sulphate (MgSO4.7H2O), and 0.9% lactic acid, wherein the pH value was adjusted to 4.5 and the broth was sterilized for use;
(2) Experimental Grouping:
The requirements for aseptic technique were strictly followed to prepare the following groups of sterile test tubes: • a) sodium benzoate group: a test tube containing 5 ml broth, to which 0.025% (w/v) sodium benzoate was added; • b) sodium benzoate+sodium dehydroacetate group: 6 test tubes each containing 5 ml broth, wherein 0.0025% (w/v), 0.005% (w/v), and 0.01% (w/v) sodium dehydroacetate were added to three tubes, respectively; 0.025% (w/v) sodium benzoate was added to each of the rest 3 tubes, and then 0.0025% (w/v), 0.005% (w/v), 0.01% (w/v) sodium dehydroacetate were added to them, respectively; • c) sodium benzoate+sodium propionate group: 6 test tubes each containing 5 ml broth, wherein 0.0625% (w/v), 0.125% (w/v), and 0.25% (w/v) sodium propionate were added to three tubes, respectively; 0.025% (w/v) sodium benzoate was added to each of the rest 3 tubes, and then 0.0625% (w/v), 0.125% (w/v), and 0.25% (w/v) sodium propionate were added to them, respectively; • d) sodium benzoate+potassium sorbate group: 6 test tubes each containing 5 ml broth, wherein 0.00625% (w/v), 0.0125% (w/v), and 0.025% (w/v) potassium sorbate were added to 3 tubes, respectively; 0.025% (w/v) sodium benzoate was added to each of the rest 3 tubes, and then 0.00625% (w/v), 0.0125% (w/v), and 0.025% (w/v) potassium sorbate were added to them, respectively; • e) sodium benzoate+Ethylparaben: 6 test tubes each containing 5 ml broth, wherein 0.0125% (w/v), 0.025% (w/v), and 0.05% (w/v) Ethylparaben were added to 3 tubes, respectively; 0.025% (w/v) sodium benzoate was added to each of the rest 3 tubes, and then 0.0125% (w/v), 0.025% (w/v), and 0.05% (w/v) Ethylparaben were added to them, respectively; • f) Positive control: a broth-containing test tube with Candida but without sodium benzoate, sodium dehydroacetate, sodium propionate, sorbic acid, or Ethylparaben. • g) Negative control: a broth-containing test tube without Candida, sodium benzoate, sodium dehydroacetate, sodium propionate, sorbic acid, or Ethylparaben; (3) Experimental Methods:
The Candidal suspensions were prepared under stringent aseptic manipulation techniques. The colonies of various Candidal strains were diluted with saline, respectively. The turbidity was adjusted with a turbiditor to 0.5M (about 10^8CFU/ml), and then 1 ml 0.5M bacterial solution was added to 9 ml broth and was 10 times diluted, so that each Candidal suspension comprised Candidal organisms at 10^7CFU/ml.
Under stringent aseptic manipulation techniques, 100 μl bacterial solution thus prepared was added to each of the aforesaid a˜f test tubes and the positive control tube, and no bacterial solution was added to the negative control tube g.
These tubes were incubated in a biochemical incubator at 37.5° C. for 72 hours. The turbidity of the test tubes were observed and recorded.

O=C([O-])c1ccccc1.[Na+] [0.1% sodium benzoate, sodium benzoate]
Candida (detection rate) (Candidal vaginitis; Day 1): 15/20
pH 3.8~4.1 (vaginal secretion) (Candidal vaginitis; Day 1): 12/20
pH 4.2~4.5 (vaginal secretion) (Candidal vaginitis; Day 1): 6/20
pH <3.8 (vaginal secretion) (Candidal vaginitis; Day 1): 2/20
symptom alleviated/eliminated (Candidal vaginitis; Day 1): 7/20
Candida (detection rate) (Candidal vaginitis; Day 2): 13/20
pH 3.8~4.1 (vaginal secretion) (Candidal vaginitis; Day 2): 10/20
pH 4.2~4.5 (vaginal secretion) (Candidal vaginitis; Day 2): 9/20
pH <3.8 (vaginal secretion) (Candidal vaginitis; Day 2): 1/20
symptom alleviated/eliminated (Candidal vaginitis; Day 2): 9/20
Candida (detection rate) (Candidal vaginitis; Day 3): 9/20
pH 3.8~4.1 (vaginal secretion) (Candidal vaginitis; Day 3): 9/20
pH 4.2~4.5 (vaginal secretion) (Candidal vaginitis; Day 3): 9/20
pH <3.8 (vaginal secretion) (Candidal vaginitis; Day 3): 2/20
symptom alleviated/eliminated (Candidal vaginitis; Day 3): 14/20
Candida (detection rate) (Candidal vaginitis; Day 4): 5/20
pH 3.8~4.1 (vaginal secretion) (Candidal vaginitis; Day 4): 10/20
pH 4.2~4.5 (vaginal secretion) (Candidal vaginitis; Day 4): 9/20
pH <3.8 (vaginal secretion) (Candidal vaginitis; Day 4): 1/20
symptom alleviated/eliminated (Candidal vaginitis; Day 4): 15/20
Candida (detection rate) (Candidal vaginitis; Day 5): 6/20
pH 3.8~4.1 (vaginal secretion) (Candidal vaginitis; Day 5): 9/20
pH 4.2~4.5 (vaginal secretion) (Candidal vaginitis; Day 5): 10/20
pH <3.8 (vaginal secretion) (Candidal vaginitis; Day 5): 1/20
symptom alleviated/eliminated (Candidal vaginitis; Day 5): 15/20
Candida (detection rate) (Candidal vaginitis; before administration): 20/20
pH 3.8~4.1 (vaginal secretion) (Candidal vaginitis; before administration): 10/20
pH 4.2~4.5 (vaginal secretion) (Candidal vaginitis; before administration): 4/20
pH <3.8 (vaginal secretion) (Candidal vaginitis; before administration): 6/20
symptom alleviated/eliminated (Candidal vaginitis; before administration): 0/20

CCC(=O)[O-].[Na+] [0.125% sodium propionate, sodium propionate]
Candida growth, Strain 1 ([1]; Strain 1, 37.5° C.): +
Candida growth, Strain 2 ([1]; Strain 2, 37.5° C.): +
Candida growth, Strain 3 ([1]; Strain 3, 37.5° C.): +
Candida growth, Strain 4 ([1]; Strain 4, 37.5° C.): +
Candida growth, Strain 5 ([1]; Strain 5, 37.5° C.): −
Candida growth, Strain 6 ([1]; Strain 6, 37.5° C.): +
Candida growth, Strain 7 ([1]; Strain 7, 37.5° C.): +
Candida growth, Strain 8 ([1]; Strain 8, 37.5° C.): +
Candida growth, Strain 9 ([1]; Strain 9, 37.5° C.): −
Candida growth, Strain 10 ([1]; Strain 10, 37.5° C.): +
Candida growth, Strain 11 ([1]; Strain 11, 37.5° C.): −
Candida (detection rate) (Candidal vaginitis; Day 1): 16/20
pH 3.8~4.1 (vaginal secretion) (Candidal vaginitis; Day 1): 12/20
pH 4.2~4.5 (vaginal secretion) (Candidal vaginitis; Day 1): 5/20
pH <3.8 (vaginal secretion) (Candidal vaginitis; Day 1): 3/20
symptom alleviated/eliminated (Candidal vaginitis; Day 1): 7/20
Candida (detection rate) (Candidal vaginitis; Day 2): 13/20
pH 3.8~4.1 (vaginal secretion) (Candidal vaginitis; Day 2): 11/20
pH 4.2~4.5 (vaginal secretion) (Candidal vaginitis; Day 2): 6/20
pH <3.8 (vaginal secretion) (Candidal vaginitis; Day 2): 3/20
symptom alleviated/eliminated (Candidal vaginitis; Day 2): 9/20
Candida (detection rate) (Candidal vaginitis; Day 3): 10/20
pH 3.8~4.1 (vaginal secretion) (Candidal vaginitis; Day 3): 9/20
pH 4.2~4.5 (vaginal secretion) (Candidal vaginitis; Day 3): 9/20
pH <3.8 (vaginal secretion) (Candidal vaginitis; Day 3): 2/20
symptom alleviated/eliminated (Candidal vaginitis; Day 3): 14/20
Candida (detection rate) (Candidal vaginitis; Day 4): 12/20
pH 3.8~4.1 (vaginal secretion) (Candidal vaginitis; Day 4): 10/20
pH 4.2~4.5 (vaginal secretion) (Candidal vaginitis; Day 4): 9/20
pH <3.8 (vaginal secretion) (Candidal vaginitis; Day 4): 1/20
symptom alleviated/eliminated (Candidal vaginitis; Day 4): 13/20
Candida (detection rate) (Candidal vaginitis; Day 5): 11/20
pH 3.8~4.1 (vaginal secretion) (Candidal vaginitis; Day 5): 10/20
pH 4.2~4.5 (vaginal secretion) (Candidal vaginitis; Day 5): 8/20
pH <3.8 (vaginal secretion) (Candidal vaginitis; Day 5): 2/20
symptom alleviated/eliminated (Candidal vaginitis; Day 5): 13/20
Candida (detection rate) (Candidal vaginitis; before administration): 20/20
pH 3.8~4.1 (vaginal secretion) (Candidal vaginitis; before administration): 9/20
pH 4.2~4.5 (vaginal secretion) (Candidal vaginitis; before administration): 5/20
pH <3.8 (vaginal secretion) (Candidal vaginitis; before administration): 6/20
symptom alleviated/eliminated (Candidal vaginitis; before administration): 0/20

C/C=C/C=C/C(=O)O [0.0125% sorbic acid, sorbic acid]
Candida (detection rate) (Candidal vaginitis; Day 1): 15/20
pH 3.8~4.1 (vaginal secretion) (Candidal vaginitis; Day 1): 13/20
pH 4.2~4.5 (vaginal secretion) (Candidal vaginitis; Day 1): 6/20
pH <3.8 (vaginal secretion) (Candidal vaginitis; Day 1): 1/20
symptom alleviated/eliminated (Candidal vaginitis; Day 1): 6/20
Candida (detection rate) (Candidal vaginitis; Day 2): 15/20
pH 3.8~4.1 (vaginal secretion) (Candidal vaginitis; Day 2): 11/20
pH 4.2~4.5 (vaginal secretion) (Candidal vaginitis; Day 2): 7/20
pH <3.8 (vaginal secretion) (Candidal vaginitis; Day 2): 2/20
symptom alleviated/eliminated (Candidal vaginitis; Day 2): 12/20
Candida (detection rate) (Candidal vaginitis; Day 3): 13/20
pH 3.8~4.1 (vaginal secretion) (Candidal vaginitis; Day 3): 10/20
pH 4.2~4.5 (vaginal secretion) (Candidal vaginitis; Day 3): 8/20
pH <3.8 (vaginal secretion) (Candidal vaginitis; Day 3): 2/20
symptom alleviated/eliminated (Candidal vaginitis; Day 3): 11/20
Candida (detection rate) (Candidal vaginitis; Day 4): 14/20
pH 3.8~4.1 (vaginal secretion) (Candidal vaginitis; Day 4): 11/20
pH 4.2~4.5 (vaginal secretion) (Candidal vaginitis; Day 4): 8/20
pH <3.8 (vaginal secretion) (Candidal vaginitis; Day 4): 1/20
symptom alleviated/eliminated (Candidal vaginitis; Day 4): 13/20
Candida (detection rate) (Candidal vaginitis; Day 5): 13/20
pH 3.8~4.1 (vaginal secretion) (Candidal vaginitis; Day 5): 11/20
pH 4.2~4.5 (vaginal secretion) (Candidal vaginitis; Day 5): 7/20
pH <3.8 (vaginal secretion) (Candidal vaginitis; Day 5): 2/20
symptom alleviated/eliminated (Candidal vaginitis; Day 5): 12/20
Candida (detection rate) (Candidal vaginitis; before administration): 20/20
pH 3.8~4.1 (vaginal secretion) (Candidal vaginitis; before administration): 9/20
pH 4.2~4.5 (vaginal secretion) (Candidal vaginitis; before administration): 6/20
pH <3.8 (vaginal secretion) (Candidal vaginitis; before administration): 5/20
symptom alleviated/eliminated (Candidal vaginitis; before administration): 0/20
